For one experiment, the system named is Type IV PDE. Description: PDE IV inhibitory activity (isozyme partially purified from rat neutrophils, 3H-cAMP substrate). Type of experiment: biochemical. The note with it: rat neutrophil PDE IV, 30° C., 30 minutes, read-out: PDE IV inhibiting action IC50. As to the method:
Type I, III, IV, and V PDE isozymes were prepared to study the PDE inhibitory activities of and selectivities with the compound of the invention [Trends Pharmacol Sci., 12, 19-27 (1991)]. Type I PDE was purchased from Sigma Corp. Type III, IV, and V PDE isozymes were partially purified from platelets (Type III and V) or neutrophils (Type IV) collected from rats. Each enzyme source was homogenized in a buffer (pH 6.5) containing 20 mM bisTris, 2 mM EDTA (i.e., ethlenediamine tetraacetate), 2-mercaptoethanol, 0.001 mM pepstatin and 0.01 mM leupeptin and was centrifuged at 30000×G for 30 minutes to obtain a supernatant, which was applied to an ion exchange column (Q-sepharose first flow, Pharmacia Corp.) and was eluted with 0 to 1M sodium acetate. Partially purified isozymes were identified by observing the inhibitory effects of conventional inhibitors.
Each PDE isozyme and the test compound dissolved in DMSO (i.e., dimethylsulfoxide) were added to 50 mM Tris--HCI buffer containing 5 mM magnesium chloride. ^3 H-cAMP (for type III and IV PDE) or ^3 H-cGMP (for type I and V PDE) were added as substrates and were reacted at 30° C. for 30 minutes. The reaction was terminated by placing the test tube in boiling water of 100° C. for 5 minutes. The nucleotides formed by PDE were broken down to ^3 H-adenosine or ^3 H-guanosine by 5'-nucleotidase. The substrate and reaction product were separated through an ion-exchange column (i.e., QAE sephadex, Pharmacia Corp.)
The eluted ^3 -H-nucleoside was measured for its radioactivity by a liquid scintillation counter. The inhibitory activities of the compound of the present invention are shown by the IC50 value (M). Further, the inhibitory activities of the test samples against type I, III, and V PDE are 1/10 or less than that against Type IV PDE.

The subject of experiment [1] is TPA induced ear edema in mouse. Nature of the experiment: TPA induced mouse ear edema assay. It is filed as in vivo, mouse (male ICR). Conditions: 0.1 mg applied to right ear immediately after TPA; 6 hour. As to the method: Male ICR mice, 5 week old, were divided into groups of seven to eight. 2 μg of TPA (phorbor 12-ministate; Sigma Co.) in 20 μl acetone was applied to the inner and outer surface of right ear of each mouse to cause a reaction. 0.1 mg of compound was dissolved in 20 μl of a tetrahydrofuran-methanol mixture (mixture ratio 1:1) and the solution (20 μl) applied to the right ear immediately after TPA treatment. After 6 hour, the animals were sacrificed and right ear was punched out (.phi. […]) and weighed. The effect of comppund.was calculated as % inhibition as follows: [formula]

Molecules are shown by their SMILES.

In general, IC50 refers to the concentration that inhibits the measured activity by half.

Regarding `COc1ccc(NC2=C(C)C(=O)CC2)cc1O[C@@H]1C[C@H]2CC[C@@H]1C2` (racemic) [Compound No. 44, 3-[3-[(1RS,2RS,4SR)-bicyclo[2.2. 1]hept-2-yloxy]-4-methoxyanilino]-2-methyl-2-cyclopenten-1-one], the half-maximal inhibitory concentration (IC50) in the experiment on Type IV PDE amounted to 220 nM. Besides, the “% Inhibition of ear edema” value in experiment [1] is listed as 74.1%.
Consider `CCC1=C(Nc2ccc(OC)c(O[C@@H]3C[C@H]4CC[C@@H]3C4)c2)CCC1=O` (racemic) [Compound No. 45, 3-[3-[(1RS,2RS,4SR)-bicyclo[2.2. 1]hept-2-yloxy]-4-methoxyanilino]-2-ethyl-2-cyclopenten-1-one], for which the 50% inhibitory concentration (IC50) in the experiment on Type IV PDE was found to be 80 nM. In addition, in experiment [1], the “% Inhibition of ear edema” value amounted to 75.3%.
As to `COc1ccc(NC2=C(C)C(=O)CCC2)cc1O[C@@H]1C[C@H]2CC[C@@H]1C2` (racemic) [Compound No. 46, 3-[3-[(1RS,2RS,4SR)-bicyclo[2.2. 1]hept-2-yloxy]-4-methoxyanilino]-2-methyl-2-cyclohexen-1-one], the half-inhibitory concentration (IC50) in the experiment with Type IV PDE came to 260 nM.
Turning to `COc1ccc(N(C)C2=C(C)C(=O)CC2)cc1O[C@@H]1C[C@H]2CC[C@@H]1C2` (racemic) [Compound No. 47, 3-[3-[(1RS,2RS,4SR)-bicyclo[2.2. 1]hept-2-yloxy]4-methoxy-N-methylanilino]-2-methyl-2-cyclopenten-1-one], the IC50 in the experiment with Type IV PDE came to 1600 nM. For the same molecule, the “% Inhibition of ear edema” value in experiment [1] was 59.9%.
On to `COc1ccc(N(Cc2ccccc2)C2=CC(=O)CC2)cc1O[C@@H]1C[C@H]2CC[C@@H]1C2` (racemic) [Compound No. 81, 3-[N-benzyl-3-[(1RS,2RS,4SR)-bicyclo[2.2. 1]hept-2-yloxy]4-methoxyanilino]-2-cyclopenten-1-one], for which the IC50 in the experiment on Type IV PDE was 1000 nM. Besides, in experiment [1], the “% Inhibition of ear edema” value came to 82.7%.
For the molecule `COc1ccc(N(Cc2ccncc2)C2=CC(=O)CCC2)cc1O[C@@H]1C[C@H]2CC[C@@H]1C2` (racemic) [Compound No. 85, 3-[3-[(1RS,2RS,4SR)-bicyclo[2.2. 1]hept-2-yloxy]4-methoxy-N-(4-pyridylmethyl)anilino]-2-cyclohexen-1-one], in the experiment on Type IV PDE, the IC50 is 3600 nM. The “% Inhibition of ear edema” value in experiment [1] is reported as 70.3%.
`COc1ccc(NC2=CC(=O)CC(C)(C)C2)cc1OC1CCCC1` [Compound No. 3, 3-(3-cycloientyloxy-4-methoxyanilino)-5,5-dimethyl-2-cyclohexen-1-one]: in the experiment on Type IV PDE, the 50% inhibitory concentration (IC50) was found to be 4900 nM.
For `COc1ccc(NC2=C(C)C(=O)CC2)cc1OC1CCCC1` [Compound No. 4, 3-(3-cyclopentyloxy-4-methoxyanilino)-2-methyl-2-cyclopenten-1-one], the IC50 with Type IV PDE was 390 nM.
Turning to `COc1ccc(NC2=CC(=O)CC(C)C2)cc1OC1CCCC1` (centres unmarked) [Compound No. 5, 3-(3-cycloientyloxy-4-methoxyanilino)-5-methyl-2-cyclohexen-1-one], in the experiment on Type IV PDE, the half-maximal inhibitory concentration (IC50) came out at 2200 nM.
Regarding `COc1ccc(NC2=C(Cl)C(=O)CC2)cc1OC1CCCC1` [Compound No. 6, 2-chloro-3-(3-cyclopentyloxy-4-methoxyanilino)-2-cyclopenten-1-one], the IC50 with Type IV PDE is 540 nM.
As to `COc1ccc(NC2=CC(=O)CC2)cc1OCCc1ccccc1` [Compound No. 11, 3-(4-methoxy-3-phenethyloxyanilino)-2-cyclopenten-1-one], the IC50 in the experiment with Type IV PDE is 4000 nM.
Still for that read-out and setting: for `COc1ccc(NC2=CC(=O)CC2)cc1OCC1CC1` [Compound No. 15, 3-(3-cyclopropylmethoxy-4-methoxyanilino)-2-cyclopenten-1-one] the value was 7100 nM.
On the same count and under the same terms, the result for `CCCCOc1cc(NC2=C(C)C(=O)CC2)ccc1OC` [Compound No. 18, 3-(3-butoxy-4-methoxyanilino)-2-methyl-2-cyclopenten-1-one] reads 1700 nM.
Turning to `COc1ccc(NC2=CC(=O)CCC2)cc1OCc1ccccc1` [Compound No. 20, 3-(3-benzyloxy-4-methoxyanilino)-2-cyclohexen-1-one], the concentration for half-maximal inhibition (IC50) in the experiment with Type IV PDE stood at 44000 nM.
On the same count and under the same terms, the result for `COc1ccc(NC2=C(CN(C)C)C(=O)CC2)cc1OC1CCCC1` [Compound No. 24, 3-(3-cyclopentyloxy-4-methoxyanilino)-2-dimethylaminomethyl-2-cyclopenten-1-one] reads 61000 nM.
On the same count and under the same terms, for `COc1ccc(NC2=C(CN3CCOCC3)C(=O)CC2)cc1OC1CCCC1` [Compound No. 25, 3-(3-cyclopentyloxy-4-methoxyanilino)-2-(4-morpholinomethyl)-2-cyclopenten-1-one] the value was 17000 nM; for `COc1ccc(N(C(C)=O)C2=CC(=O)CC2)cc1OC1CCCC1` [Compound No. 29, 3-(N-acetyl-3-cyclopentyloxy-4-methoxyanilino)-2-cyclopenten-1-one], 48000 nM.
`COc1ccc(NC2=CC(=O)CC2)cc1OCCC1Cc2ccccc2C1` [Compound No. 34, 3-[3-[2-(2-indanyl)ethoxy]-4-methoxyanilino]-2-cyclopenten-1-one]: the IC50 in the experiment on Type IV PDE amounted to 1800 nM.
Take `COc1ccc(NC2=CC(=O)CC2)cc1OC1CCOC1` (centres unmarked) [Compound No. 36, 3-[4-methoxy-3-(3-2,3,4,5-tetrahydrofuranyloxy)anilino]-2-cyclopenten-1-one]: the IC50 in the experiment with Type IV PDE turned out to be 8900 nM.
Still for that read-out and setting: the result for `COc1ccc(NC2=CC(=O)C(C)(C)CC2)cc1OC1CCCC1` [Compound No. 38, 3-(3-cyclopentyloxy-4-methoxyanilino)-6,6-dimethyl-2-cyclohexen-1-one] reads 17000 nM; that for `COc1ccc(NC2=CC(=O)CC(c3ccccc3)C2)cc1OC1CCCC1` (centres unmarked) [Compound No. 39, 3-(3-cyclopentyloxy-4-methoxyanilino)-5-phenyl-2-cyclohexen-1-one], 3900 nM; that for `COc1ccc(NC2=CC(=O)CC2)cc1OCC1CCCC1` [Compound No. 40, 3-(3-cyclopentylmethoxy-4-methoxyanilino)-2-cyclopenten-1-one], 4000 nM.
`COc1ccc(NC2=C(C)C(=O)CC2)cc1OCC1CCCC1` [Compound No. 41, 3-(3-cyclopentylmethoxy-4-methoxyanilino)-2-methyl-2-cyclopenten-1-one]: in the experiment on Type IV PDE, the 50% inhibitory concentration (IC50) is 940 nM.
On the same count and under the same terms, for `COc1ccc(NC2=C(C)C(=O)CC2)cc1OCCc1cccc2ccccc12` [Compound No. 43, 3-[4-methoxy-3-[2-(1-naphthyl)ethoxy]anilino]-2-methyl-2-cyclopenten-1-one] the value was 1300 nM.
On the same count and under the same terms, the result for `COc1ccc(NC2=CC(=O)CC2)cc1OCC1CCC1` [Compound No. 51, 3-(3-cyclobutylmethoxy-4-methoxyanilino)-2-cyclopenten-1-one] reads 1900 nM.
Turning to `COc1ccc(NC2=C(C)C(=O)CC2)cc1OCC1CCC1` [Compound No. 52, 3-(3-cyclobutylmethoxy-4-methoxyanilino)-2-methyl-2-cyclopenten-1-one], the concentration for half-maximal inhibition (IC50) with Type IV PDE turned out to be 550 nM.
With `COc1ccc(NC2=C(C)C(=O)CCC2)cc1OCC1CCCC1` [Compound No. 54, 3-(3-cyclopentylmethoxy-4-methoxyanilino)-2-methyl-2-cyclohexen-1-one], in the experiment on Type IV PDE, the concentration for half-maximal inhibition (IC50) was 730 nM.
For the molecule `COc1ccc(NC2=C(Cc3ccccc3)C(=O)CCC2)cc1OC1CCCC1` [Compound No. 69, 2-benzyl-3-(3-cyclopentyloxy-4-methoxyanilino)-2-cyclohexen-1-one], the IC50 in the experiment on Type IV PDE was found to be 1100 nM.
The same measure, in the same setting: for `COc1ccc(N(C)C2=C(C)C(=O)CC2)cc1OC1CCCC1` [Compound No. 70, 3-(3-cyclopentyloxy-4-methoxy-N-methylanilino)-2-methyl-2-cyclopenten-1-one] the value was 3100 nM; for `COc1ccc(N(Cc2ccccc2)C2=C(C)C(=O)CC2)cc1OC1CCCC1` [Compound No. 71, 3-(N-benzyl-3-cyclopentyloxy-4-methoxyanilino)-2-methyl-2-cyclopenten-1-one], 8200 nM; for `COc1ccc(N(Cc2ccc3ccccc3n2)C2=C(C)C(=O)CC2)cc1OC1CCCC1` [Compound No. 72, 3-[3-cyclopentyloxy-4-methoxy-N-(2-quinolylemethyl)anilino]-2-methyl-2-cyclopenten-1-one], 3000 nM.
On the same count and under the same terms, for `COc1ccc(N(Cc2ccc3ccccc3c2)C2=C(C)C(=O)CC2)cc1OC1Cc2ccccc2C1` [Compound No. 74, 3-[3-(2-indanyloxy)-4-methoxy-N-(2-naphthylmethyl)anilino]-2-methyl-2-cyclopenten-1-one] the value was 3500 nM; for `COc1ccc(NC2=CC(=O)CC2)cc1OCCc1cccc2ccccc12` [compound 42, 3-[4-methoxy-3-[2-(1-naphthyl)ethoxy]anilino]-2-cyclopenten-1-one], 9600 nM.

These data come from patent publication US6235736A, “3-anilino-2-cycloalkenone derivatives” (Nikken Chemicals Co., Ltd., priority 1997, dated 2001).
